Measured values reported in article PMC12916490 (Molecular Psychiatry, 2025).
Where two headings read alike, the source gives them in different places.

Assay: In vivo microdialysis (striatum) with plasma and brain levels after co-administration of DOM and DOAM
Parameters: species or system mouse
Settings: 0.5 mg/kg s.c. each; for Dialysate concentration (striatal microdialysis) after co-administration of DOM and DOAM: dialysate collected 30 min post injection, detection limit 0.04 ng/mL; for concentration at 30 min: both sexes, C57BL/6JRj, mouse, subcutaneous, 30 min post injection, mice
Experimental: Microdialysis experiments were conducted as previously reported with minor modifications; involved procedures were approved by the Cantonal Veterinary Office Basel-Stadt, in accordance with Swiss law. Three male and two female C57BL/6JRj mice (Janvier Labs, France) aged 11–14 weeks were used. During stereotactic surgeries, a guide cannula (CMA7; CMA Microdialysis AB, Sweden) directed to the striatum was implanted at 0.6 AP, 1.8 ML and -1.5 DV from bregma and fixed with dental cement. On the day of microdialysis, a microdialysis probe (CMA7, 3-mm probe length) was inserted into the guide cannula and perfused with artificial cerebrospinal fluid (119 mM NaCl, 11 mM D-glucose, 26.2 mM NaHCO3, 2.5 mM KCl, 1.3 mM MgCl2, 1 mM NaH2PO4, and 2.5 mM CaCl2) at 1 µL/min. The dialysate was collected for 30 min before s.c. injection of a mixture of DOM and DOAM (dissolved in DMSO/Tween80/saline; 1:1:18) yielding a dose of 0.5 mg/kg body weight for each substance. The dialysate post injection was collected for 30 min followed by decapitation under isoflurane anesthesia. Plasma obtained from trunk blood and homogenates of the forebrains (0.5 g brain tissue per 1 mL ice-cold water) were prepared for LC–MS/MS analysis. One hemisphere of the brain from each mouse was fixed in 4% paraformaldehyde, sectioned, and stained with Hoechst dye (2 µg/mL for 30 min) to confirm the placement of the microdialysis probe in the striatum. After running microdialysis in one or two mice, the recoveries of the microdialysis probes were assessed by collecting dialysate for 15 min at 1 µL/min with the probe immersed in a mixture of DOM and DOAM (1 µg/mL each; in artificial cerebrospinal fluid).
Data analysis was performed with Prism software (version 10.1.2, GraphPad Software, Boston, MA, USA). The IC50 values from the radioligand binding assays were determined by nonlinear regression, using three independent concentration-response curves fitted to a one-site model. The Cheng-Prusoff equation was used to calculate Kᵢ values for the competing ligands. EC50 values were determined by applying nonlinear regression to concentration-response curves. Bias factors (β) were calculated based on the relative intrinsic activity approach. More detailed information can be found in the Supplementary information. Mean values for total number of HTR, change in body temperature from pre to post session (Δ°C), and total distance traveled (cm) for each drug dose were compared (p < 0.05) via Welch’s ANOVA with Dunnett’s T3 post test, comparing all doses to respective vehicle controls (0 mg/kg). Welch’s ANOVA with Dunnett’s T3 post test was also used to compare drug concentrations, but the data were compared to DOM in this case. Dose–response relationships for HTR and locomotor activities were plotted using bell-shaped curve fits, while temperature change data were plotted using four-parameter non-linear regression curve fits. The ascending phase of the HTR curve for each drug was used to determine ED50 potency values from four parameter non-linear regression fits. For combined DOM and DOAM administration, the plasma, brain tissue, and brain dialysate drug concentrations were compared using paired t-tests (p < 0.05). Ratios were compared using Holm-Sidak’s post hoc test following a repeated-measures one-way ANOVA (F (1.709, 6.835) = 70.80; p < 0.0001).

[1] = brain (forebrain homogenate), read-out: Brain tissue level after co-administration of DOM and DOAM
[2] = plasma, read-out: Plasma level after co-administration of DOM and DOAM

SMILES: COc1cc(CC(C)N)c(OC)cc1C (stereo not drawn) [DOM, 4-methyl-2,5-dimethoxyamphetamine]
- Dialysate concentration (striatal microdialysis) after co-administration of DOM and DOAM: 0.82 ng/mL
- concentration at 30 min [1]: 463 ng/g
- concentration at 30 min [2]: 26 ng/mL

SMILES: CCCCCc1cc(OC)c(CC(C)N)cc1OC (stereo not drawn) [DOAM, 4-amyl-2,5-dimethoxyamphetamine]
- Dialysate concentration (striatal microdialysis) after co-administration of DOM and DOAM: < 0.04 ng/mL
- concentration at 30 min [1]: 276 ng/g
- concentration at 30 min [2]: 12 ng/mL
